Results on 3 molecules are retold here after patent US20260224692A1, “T CELL-DIRECTED ANTI-AGING AND ANTI-CANCER VACCINES AGAINST COMMENSAL CYTOMEGALOVIRUS” (The General Hospital Corporation, priority 2023, published 2026).

The test system of one data set is skin CD4+ T cells. The experiment in a line: Flow cytometry analysis of perforin and CD107a expression on CD4+ T cells exposed to SCFA. The class given is cell-based, human. Particulars: 5 mM SCFA, 24 h. As to the method: FIGS. 15A-15B. Butyrate and pentanoate boost CD4 CTL-mediated clearance of senescent cells. (A) The frequency of cleaved caspase-3^+ senescent fibroblasts after co-culture for 6 h with skin T cells, which are preincubated with each 5 mM SCFAs for 2 days, using a skin T cell to fibroblast ratio of 50:1. All data are expressed as the mean±SD. n=3 individuals. (B) The effect of each SCFA (5 mM) treatment on the cytotoxicity of CD4^+ T cells. Flow cytometry analysis of perforin and CD107a expression on CD4^+ T cells exposed to each SCFA for 24 h. n=2 individuals. All data are expressed as the mean±SD.
Cells were washed once with PBS, including 5% newborn calf serum (Thermo Fisher Scientific, 26010074) and 0.01% sodium azide (Sigma-Aldrich, S2002-100G), and stained with antibodies (Tables 3B and 3B) on ice for 30 min followed by secondary antibody if needed (Table 3A). Following the surface marker staining, cells were fixed and permeabilized for intracellular staining using True-Nuclear Transcription Factor Buffer Set (BioLegend, 424401). Permeabilized cells were stained with antibodies (Table 3A) overnight at 4° C. […] Data were analyzed using FlowJo software (BD Life Sciences, Franklin Lakes, NJ). Relative fluorescence intensity was calculated by subtracting the median fluorescence intensity of isotype control from the median fluorescence intensity of stained samples.
In general terms: A flow cytometer gives signals particle by particle.

A further data set has as its system senescent fibroblasts. Kind of data set: SCFA-mediated CD4+ T cell stimulation assay: T cell-mediated cytotoxicity against senescent fibroblasts. It counts as cell-based, human. As to conditions: T cells exposed to 5 mM SCFA for 2 days; 6 h co-culture; T cell to fibroblast ratio 50:1. Here is the method:
FIGS. 15A-15B. […] (A) The frequency of cleaved caspase-3^+ senescent fibroblasts after co-culture for 6 h with skin T cells, which are preincubated with each 5 mM SCFAs for 2 days, using a skin T cell to fibroblast ratio of 50:1. All data are expressed as the mean±SD. n=3 individuals. (B) The effect of each SCFA (5 mM) treatment on the cytotoxicity of CD4^+ T cells. Flow cytometry analysis of perforin and CD107a expression on CD4^+ T cells exposed to each SCFA for 24 h. n=2 individuals. All data are expressed as the mean±SD.
T cells were seeded at a density of 2.5×10^5 cells into 60 mm dish, and were added to each 5 mM SCFAs, including butylate (EMD Millipore), pentanoate (Ambeed Inc), or propionate (Sigma-Aldrich) with 20 ng/ml human IL-2 recombinant and 20 ng/ml human IL-15 recombinant for 2 days. Following 2 days of co-incubation, T cells were subsequently added to each senescent fibroblasts-placed wells and were cultured in T cell medium with 20 ng/ml human IL-2 recombinant and 20 ng/ml human IL-15 recombinant in 24 well plate (Ratios of 50:1 T cells-to fibroblasts respectively). Following 6 hr of co-incubation, remaining fibroblasts were stained with vimentin and cleaved caspase-3 to examine the frequency of T cell-mediated cytotoxicity against senescent fibroblasts. […]

Another data set has as its system human skin CD4 CTLs. Kind of data set: Trans-well migration assay. The class given is cell-based. As to conditions: recombinant human CXCL9 50 nM (585 ng/mL) in bottom well, 60 min, vs PBS carrier. The text has this: FIGS. 6A-6E. CXCL9 promotes the migration of human skin-resident CD4 CTLs. […] The percent cells in each gate are shown on the flow-cytometry plots. Zombie fixable viability dye (Viability) marks dead cells. (B) Representative flow-cytometry plots of CXCR3 expression on CD4^+ and CD8^+ T cells in the human skin. Numbers on the flow-cytometry plots represent the percent cells within each gate. (C) The experimental scheme for trans-well migration assay using the immune cells isolated from the human skin. (D and E) The effect of CXCL9 recombinant protein (585 ng/mL) treatment on the migration of human skin CD4 CTLs (D) and CD8^+ T cells (E). Skin samples from two independent donors were used to isolate skin-resident immune cells (female skin donors). Bar graphs show mean±SD, Mann-Whitney U test.
Skin-isolated cells were seeded at a density of 1.5×10^4 cells/well into the top inserts of the 24-well trans-well plate (Corning, 07-200-149). The pore size is 5 μm. RPMI containing recombinant human CXCL9 (PeproTech, 300-26) or PBS (carrier only) at the concentration of 50 nM was added into the bottom well. Skin-isolated cells were incubated for 60 min. Then, cells were counted and stained as described in the flow cytometry section.

In the case of `CCCC(=O)O` [butyrate], the “expression of perforin+ and CD107a+ on CD4+ T cells (cytotoxicity capacity)” value in the data set on skin CD4+ T cells was “increase”. In the data set on senescent fibroblasts, the “apoptosis (cleaved caspase-3+) in senescent fibroblasts by SCFA-exposed skin T cells” value is “highly induced apoptosis”.

Turning to `CCCCC(=O)O` [pentanoate], in the data set with skin CD4+ T cells, the “expression of perforin+ and CD107a+ on CD4+ T cells (cytotoxicity capacity)” value is given as “increase”. In the data set on senescent fibroblasts, the “apoptosis (cleaved caspase-3+) in senescent fibroblasts by SCFA-exposed skin T cells” value was “highly induced apoptosis”.

B1: CXCL9: recombinant human CXCL9 chemokine (PeproTech, 300-26), ligand of CXCR3 (protein, UniProt Q07325 23-125, looked up)
C-X-C motif chemokine 9: TPVVRKGRCSCISTNQGTIHLQSLKDLKQFAPSPSCEKIEIIATLKNGVQTCLNPDSADVKELIKKWEKQVSQKKKQKNGKKHQKKKVLKVRKSQRSRQKKTT
Turning to B1, in the data set on human skin CD4 CTLs, the “migration of human skin CD4 CTLs” value was “significantly induced the migration of CD4 CTLs”.
